Publication PMC12102759 (Protein Science : A Publication of the Protein Society, 2025)

Tested on: PABPC1 PABC
Type: binding, human
Conditions: DMS-BM library, bait PABPC1 PABC, row aa = residue at this position; for DMS-derived PSSM value, position L2 / DMS-derived PSSM value, position L4: L = wild type
[1] = prey ATXN2, peptide KSTLNPNAKEFNPRSF, F = wild type
[2] = prey ATXN2, TLNPNAKEFNPRSF(averaged) over the two overlapping peptides, N = wild type
[3] = prey ATXN2, peptide TLNPNAKEFNPRSFSQ
[4] = prey ATXN2, peptide TLNPNAKEFNPRSFSQ, K = wild type
[5] = prey ATXN2, peptide TLNPNAKEFNPRSFSQ, S = wild type
[6] = prey ATXN2, peptide TLNPNAKEFNPRSFSQ, E = wild type
[7] = prey ATXN2, TLNPNAKEFNPRSF(averaged) over the two overlapping peptides, P = wild type
[8] = prey ATXN2, peptide KSTLNPNAKEFNPRSF, A = wild type
[9] = prey ATXN2, peptide TLNPNAKEFNPRSFSQ, F = wild type
[10] = prey ATXN2, peptide TLNPNAKEFNPRSFSQ, N = wild type
[11] = prey ATXN2, peptide TLNPNAKEFNPRSFSQ, P = wild type
[12] = prey ATXN2, peptide TLNPNAKEFNPRSFSQ, R = wild type
[13] = prey ATXN2, peptide TLNPNAKEFNPRSFSQ, T = wild type
[14] = prey ATXN2, peptide KSTLNPNAKEFNPRSF, K = wild type
[15] = prey ATXN2, peptide KSTLNPNAKEFNPRSF, R = wild type
[16] = prey ATXN2, peptide KSTLNPNAKEFNPRSF
[17] = prey ATXN2, peptide KSTLNPNAKEFNPRSF, P = wild type

Substance: KSTLNPNAKEFNPRSF F16V (KSTLNPNAKEFNPRSV)
- DMS-derived PSSM value, position F16 [1]: 0.175

Substance: TLNPNAKEFNPRSF(averaged) N3R (TLRPNAKEFNPRSF)
- DMS-derived PSSM value (averaged), position N3 [2]: 0.012

Substance: TLNPNAKEFNPRSFSQ L2G (TGNPNAKEFNPRSFSQ)
- DMS-derived PSSM value, position L2 [3]: 0

Substance: TLNPNAKEFNPRSFSQ K7H (TLNPNAHEFNPRSFSQ)
- DMS-derived PSSM value, position K7 [4]: 0.02911

Substance: TLNPNAKEFNPRSFSQ S15A (TLNPNAKEFNPRSFAQ)
- DMS-derived PSSM value, position S15 [5]: 0.02541

Substance: TLNPNAKEFNPRSFSQ E8M (TLNPNAKMFNPRSFSQ)
- DMS-derived PSSM value, position E8 [6]: 0.03925

Substance: TLNPNAKEFNPRSF(averaged) S13E (TLNPNAKEFNPREF)
- DMS-derived PSSM value (averaged), position S13 (prey ATXN2, TLNPNAKEFNPRSF(averaged) over the two overlapping peptides, S = wild type): 0.01358

Substance: TLNPNAKEFNPRSF(averaged) P11I (TLNPNAKEFNIRSF)
- DMS-derived PSSM value (averaged), position P11 [7]: 0.006686

Substance: KSTLNPNAKEFNPRSF A8I (KSTLNPNIKEFNPRSF)
- DMS-derived PSSM value, position A8 [8]: 0

Substance: TLNPNAKEFNPRSFSQ
- DMS-derived PSSM value, position A6 (prey ATXN2, peptide TLNPNAKEFNPRSFSQ, A = wild type): 0.3958
- DMS-derived PSSM value, position E8 [6]: 0.1068
- DMS-derived PSSM value, position F9 [9]: 0.2105
- DMS-derived PSSM value, position F14 [9]: 0.06109
- DMS-derived PSSM value, position K7 [4]: 0.0126
- DMS-derived PSSM value, position L2 [3]: 0.3849
- DMS-derived PSSM value, position N3 [10]: 0.2805
- DMS-derived PSSM value, position N5 [10]: 0.009358
- DMS-derived PSSM value, position N10 [10]: 0.0868
- DMS-derived PSSM value, position P4 [11]: 0.1257
- DMS-derived PSSM value, position P11 [11]: 0.07425
- DMS-derived PSSM value, position R12 [12]: 0.03868
- DMS-derived PSSM value, position S13 [5]: 0.06246
- DMS-derived PSSM value, position S15 [5]: 0.03177
- DMS-derived PSSM value, position T1 [13]: 0.03795

Substance: TLNPNAKEFNPRSF(averaged) F14D (TLNPNAKEFNPRSD)
- DMS-derived PSSM value (averaged), position F14 (prey ATXN2, TLNPNAKEFNPRSF(averaged) over the two overlapping peptides, F = wild type): 0.01885

Substance: TLNPNAKEFNPRSFSQ N5G (TLNPGAKEFNPRSFSQ)
- DMS-derived PSSM value, position N5 [10]: 0.01384

Substance: TLNPNAKEFNPRSF(averaged) A6E (TLNPNEKEFNPRSF)
- DMS-derived PSSM value (averaged), position A6 (prey ATXN2, TLNPNAKEFNPRSF(averaged) over the two overlapping peptides, A = wild type): 0

Substance: KSTLNPNAKEFNPRSF K9P (KSTLNPNAPEFNPRSF)
- DMS-derived PSSM value, position K9 [14]: 0.004179

Substance: KSTLNPNAKEFNPRSF A8M (KSTLNPNMKEFNPRSF)
- DMS-derived PSSM value, position A8 [8]: 0

Substance: KSTLNPNAKEFNPRSF E10S (KSTLNPNAKSFNPRSF)
- DMS-derived PSSM value, position E10 (prey ATXN2, peptide KSTLNPNAKEFNPRSF, E = wild type): 0

Substance: TLNPNAKEFNPRSFSQ N5F (TLNPFAKEFNPRSFSQ)
- DMS-derived PSSM value, position N5 [10]: 0.006389

Substance: TLNPNAKEFNPRSFSQ N10T (TLNPNAKEFTPRSFSQ)
- DMS-derived PSSM value, position N10 [10]: 0.03853

Substance: TLNPNAKEFNPRSF(averaged) N10S (TLNPNAKEFSPRSF)
- DMS-derived PSSM value (averaged), position N10 [2]: 0.02002

Substance: TLNPNAKEFNPRSF(averaged) E8I (TLNPNAKIFNPRSF)
- DMS-derived PSSM value (averaged), position E8 (prey ATXN2, TLNPNAKEFNPRSF(averaged) over the two overlapping peptides, E = wild type): 0.006482

Substance: TLNPNAKEFNPRSFSQ T1R (RLNPNAKEFNPRSFSQ)
- DMS-derived PSSM value, position T1 [13]: 0.08249

Substance: TLNPNAKEFNPRSF(averaged) P4A (TLNANAKEFNPRSF)
- DMS-derived PSSM value (averaged), position P4 [7]: 0.01026

Substance: TLNPNAKEFNPRSF(averaged) N10V (TLNPNAKEFVPRSF)
- DMS-derived PSSM value (averaged), position N10 [2]: 0.105

Substance: TLNPNAKEFNPRSF(averaged) R12P (TLNPNAKEFNPPSF)
- DMS-derived PSSM value (averaged), position R12 (prey ATXN2, TLNPNAKEFNPRSF(averaged) over the two overlapping peptides, R = wild type): 0.006659

Substance: TLNPNAKEFNPRSFSQ E8A (TLNPNAKAFNPRSFSQ)
- DMS-derived PSSM value, position E8 [6]: 0.02248

Substance: TLNPNAKEFNPRSFSQ P4E (TLNENAKEFNPRSFSQ)
- DMS-derived PSSM value, position P4 [11]: 0.001688

Substance: KSTLNPNAKEFNPRSF R14Q (KSTLNPNAKEFNPQSF)
- DMS-derived PSSM value, position R14 [15]: 0.09624

Substance: KSTLNPNAKEFNPRSF R14E (KSTLNPNAKEFNPESF)
- DMS-derived PSSM value, position R14 [15]: 0.01157

Substance: KSTLNPNAKEFNPRSF K9H (KSTLNPNAHEFNPRSF)
- DMS-derived PSSM value, position K9 [14]: 0.04428

Substance: TLNPNAKEFNPRSFSQ K7M (TLNPNAMEFNPRSFSQ)
- DMS-derived PSSM value, position K7 [4]: 0.0004181

Substance: TLNPNAKEFNPRSFSQ S13R (TLNPNAKEFNPRRFSQ)
- DMS-derived PSSM value, position S13 [5]: 0.001962

Substance: TLNPNAKEFNPRSF(averaged) K7R (TLNPNAREFNPRSF)
- DMS-derived PSSM value (averaged), position K7 (prey ATXN2, TLNPNAKEFNPRSF(averaged) over the two overlapping peptides, K = wild type): 0.01712

Substance: KSTLNPNAKEFNPRSF S2W (KWTLNPNAKEFNPRSF)
- DMS-derived PSSM value, position S2 (prey ATXN2, peptide KSTLNPNAKEFNPRSF, S = wild type): 0.0005784

Substance: TLNPNAKEFNPRSFSQ K7Y (TLNPNAYEFNPRSFSQ)
- DMS-derived PSSM value, position K7 [4]: 0.472

Substance: TLNPNAKEFNPRSFSQ P4H (TLNHNAKEFNPRSFSQ)
- DMS-derived PSSM value, position P4 [11]: 0.0297

Substance: KSTLNPNAKEFNPRSF T3N (KSNLNPNAKEFNPRSF)
- DMS-derived PSSM value, position T3 (prey ATXN2, peptide KSTLNPNAKEFNPRSF, T = wild type): 0.01165

Substance: TLNPNAKEFNPRSFSQ K7V (TLNPNAVEFNPRSFSQ)
- DMS-derived PSSM value, position K7 [4]: 0.007815

Substance: KSTLNPNAKEFNPRSF N12A (KSTLNPNAKEFAPRSF)
- DMS-derived PSSM value, position N12 (prey ATXN2, peptide KSTLNPNAKEFNPRSF, N = wild type): 0.1266

Substance: TLNPNAKEFNPRSFSQ S15W (TLNPNAKEFNPRSFWQ)
- DMS-derived PSSM value, position S15 [5]: 0.05986

Substance: KSTLNPNAKEFNPRSF A8T (KSTLNPNTKEFNPRSF)
- DMS-derived PSSM value, position A8 [8]: 0

Substance: KSTLNPNAKEFNPRSF K9L (KSTLNPNALEFNPRSF)
- DMS-derived PSSM value, position K9 [14]: 0.07486

Substance: TLNPNAKEFNPRSFSQ N3I (TLIPNAKEFNPRSFSQ)
- DMS-derived PSSM value, position N3 [10]: 0

Substance: TLNPNAKEFNPRSFSQ E8D (TLNPNAKDFNPRSFSQ)
- DMS-derived PSSM value, position E8 [6]: 0

Substance: KSTLNPNAKEFNPRSF K9G (KSTLNPNAGEFNPRSF)
- DMS-derived PSSM value, position K9 [14]: 0.006369

Substance: TLNPNAKEFNPRSFSQ F9L (TLNPNAKELNPRSFSQ)
- DMS-derived PSSM value, position F9 [9]: 0

Substance: TLNPNAKEFNPRSFSQ F14P (TLNPNAKEFNPRSPSQ)
- DMS-derived PSSM value, position F14 [9]: 0.06984

Substance: KSTLNPNAKEFNPRSF L4N (KSTNNPNAKEFNPRSF)
- DMS-derived PSSM value, position L4 [16]: 0

Substance: KSTLNPNAKEFNPRSF L4H (KSTHNPNAKEFNPRSF)
- DMS-derived PSSM value, position L4 [16]: 0

Substance: TLNPNAKEFNPRSF(averaged) P4T (TLNTNAKEFNPRSF)
- DMS-derived PSSM value (averaged), position P4 [7]: 0.01555

Substance: TLNPNAKEFNPRSF(averaged) N10L (TLNPNAKEFLPRSF)
- DMS-derived PSSM value (averaged), position N10 [2]: 0.09868

Substance: KSTLNPNAKEFNPRSF K9Y (KSTLNPNAYEFNPRSF)
- DMS-derived PSSM value, position K9 [14]: 0.02328

Substance: TLNPNAKEFNPRSF(averaged) P11V (TLNPNAKEFNVRSF)
- DMS-derived PSSM value (averaged), position P11 [7]: 0.44

Substance: TLNPNAKEFNPRSFSQ E8H (TLNPNAKHFNPRSFSQ)
- DMS-derived PSSM value, position E8 [6]: 0.0374

Substance: KSTLNPNAKEFNPRSF P13H (KSTLNPNAKEFNHRSF)
- DMS-derived PSSM value, position P13 [17]: 0

Substance: TLNPNAKEFNPRSFSQ P11M (TLNPNAKEFNMRSFSQ)
- DMS-derived PSSM value, position P11 [11]: 0.01106

Substance: KSTLNPNAKEFNPRSF P6D (KSTLNDNAKEFNPRSF)
- DMS-derived PSSM value, position P6 [17]: 0

Substance: KSTLNPNAKEFNPRSF R14A (KSTLNPNAKEFNPASF)
- DMS-derived PSSM value, position R14 [15]: 0.09772

Substance: TLNPNAKEFNPRSF(averaged) P4D (TLNDNAKEFNPRSF)
- DMS-derived PSSM value (averaged), position P4 [7]: 0

Substance: KSTLNPNAKEFNPRSF F16Y (KSTLNPNAKEFNPRSY)
- DMS-derived PSSM value, position F16 [1]: 0.101

Substance: TLNPNAKEFNPRSFSQ R12G (TLNPNAKEFNPGSFSQ)
- DMS-derived PSSM value, position R12 [12]: 0.02158

Substance: TLNPNAKEFNPRSF(averaged) N10Y (TLNPNAKEFYPRSF)
- DMS-derived PSSM value (averaged), position N10 [2]: 0.1006
